Test results as given in publication doi:10.1101/2021.04.08.439011v1 (biorxiv, 2021).

Experiments:
Conditions in all cases: 1 µM; binder
[1] = biological target: DCAMKL2 (Homo sapiens, UniProt Q8N568)
[2] = biological target: KIT(L576P) (Homo sapiens, UniProt P10721, L576P)
[3] = biological target: TNIK (Homo sapiens, UniProt Q9UKE5)
[4] = biological target: MUSK (Homo sapiens, UniProt O15146)
[5] = biological target: p38-beta (Homo sapiens, UniProt Q15759)
[6] = biological target: NEK4 (Homo sapiens, UniProt P51957)
[7] = biological target: DMPK (Homo sapiens, UniProt Q09013)
[8] = biological target: PAK1 (Homo sapiens, UniProt Q13153)
[9] = biological target: MAPKAPK5 (Homo sapiens, UniProt Q8IW41)
[10] = biological target: MRCKA (Homo sapiens, UniProt Q5VT25)
[11] = biological target: DAPK1 (Homo sapiens, UniProt P53355)
[12] = biological target: RIPK2 (Homo sapiens, UniProt O43353)
[13] = biological target: BRAF (Homo sapiens, UniProt P15056)
[14] = biological target: MARK2 (Homo sapiens, UniProt Q7KZI7)
[15] = biological target: ERK2 (Homo sapiens, UniProt P28482)
[16] = biological target: INSRR (Homo sapiens, UniProt P14616)
[17] = biological target: MEK2 (Homo sapiens, UniProt P36507)
[18] = biological target: BLK (Homo sapiens, UniProt P51451)
[19] = biological target: LATS1 (Homo sapiens, UniProt O95835)
[20] = biological target: PIK3CA(E545A) (Homo sapiens, UniProt P42336, E545A)
[21] = biological target: YANK2 (Homo sapiens, UniProt Q9NY57)
[22] = biological target: TSSK3 (Homo sapiens, UniProt Q96PN8)
[23] = biological target: KIT(V559D) (Homo sapiens, UniProt P10721, V559D)
[24] = biological target: GRK2 (Homo sapiens, UniProt P25098)
[25] = biological target: HUNK (Homo sapiens, UniProt P57058)
[26] = biological target: RAF1 (Homo sapiens, UniProt P04049)
[27] = biological target: CAMK1G (Homo sapiens, UniProt Q96NX5)
[28] = biological target: CDKL5 (Homo sapiens, UniProt O76039)
[29] = biological target: CDK5 (Homo sapiens, UniProt Q00535)
[30] = biological target: FGFR4 (Homo sapiens, UniProt P22455)

Chain of YANK2 (Q9NY57 whole entry): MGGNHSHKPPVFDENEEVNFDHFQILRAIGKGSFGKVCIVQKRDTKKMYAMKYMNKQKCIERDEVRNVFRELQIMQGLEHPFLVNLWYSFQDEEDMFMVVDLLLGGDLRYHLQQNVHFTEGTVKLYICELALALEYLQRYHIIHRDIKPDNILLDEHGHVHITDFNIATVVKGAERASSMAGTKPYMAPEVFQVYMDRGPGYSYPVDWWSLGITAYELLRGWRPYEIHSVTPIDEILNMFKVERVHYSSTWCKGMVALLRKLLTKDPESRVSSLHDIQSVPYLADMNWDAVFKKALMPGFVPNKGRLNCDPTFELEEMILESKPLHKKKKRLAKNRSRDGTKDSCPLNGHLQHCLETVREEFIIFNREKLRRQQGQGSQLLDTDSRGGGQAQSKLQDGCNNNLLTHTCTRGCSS
Chain of RAF1 (P04049 whole entry): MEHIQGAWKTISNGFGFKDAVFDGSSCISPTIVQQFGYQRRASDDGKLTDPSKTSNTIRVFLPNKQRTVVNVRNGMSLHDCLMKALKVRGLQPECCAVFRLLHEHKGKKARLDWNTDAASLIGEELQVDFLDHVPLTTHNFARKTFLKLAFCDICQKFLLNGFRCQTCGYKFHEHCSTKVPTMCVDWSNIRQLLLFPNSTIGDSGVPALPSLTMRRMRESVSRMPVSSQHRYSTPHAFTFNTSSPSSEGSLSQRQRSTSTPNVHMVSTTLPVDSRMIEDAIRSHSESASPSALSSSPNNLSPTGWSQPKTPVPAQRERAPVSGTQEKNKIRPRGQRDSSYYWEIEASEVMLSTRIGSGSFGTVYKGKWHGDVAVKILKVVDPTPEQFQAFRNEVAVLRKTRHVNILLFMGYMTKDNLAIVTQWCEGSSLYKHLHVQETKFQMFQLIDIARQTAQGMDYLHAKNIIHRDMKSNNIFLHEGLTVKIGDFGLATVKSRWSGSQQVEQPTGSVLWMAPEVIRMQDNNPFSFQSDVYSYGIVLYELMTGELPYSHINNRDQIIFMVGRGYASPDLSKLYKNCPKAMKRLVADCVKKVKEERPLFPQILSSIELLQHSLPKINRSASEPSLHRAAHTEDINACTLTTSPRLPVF
Chain of TNIK (Q9UKE5 whole entry): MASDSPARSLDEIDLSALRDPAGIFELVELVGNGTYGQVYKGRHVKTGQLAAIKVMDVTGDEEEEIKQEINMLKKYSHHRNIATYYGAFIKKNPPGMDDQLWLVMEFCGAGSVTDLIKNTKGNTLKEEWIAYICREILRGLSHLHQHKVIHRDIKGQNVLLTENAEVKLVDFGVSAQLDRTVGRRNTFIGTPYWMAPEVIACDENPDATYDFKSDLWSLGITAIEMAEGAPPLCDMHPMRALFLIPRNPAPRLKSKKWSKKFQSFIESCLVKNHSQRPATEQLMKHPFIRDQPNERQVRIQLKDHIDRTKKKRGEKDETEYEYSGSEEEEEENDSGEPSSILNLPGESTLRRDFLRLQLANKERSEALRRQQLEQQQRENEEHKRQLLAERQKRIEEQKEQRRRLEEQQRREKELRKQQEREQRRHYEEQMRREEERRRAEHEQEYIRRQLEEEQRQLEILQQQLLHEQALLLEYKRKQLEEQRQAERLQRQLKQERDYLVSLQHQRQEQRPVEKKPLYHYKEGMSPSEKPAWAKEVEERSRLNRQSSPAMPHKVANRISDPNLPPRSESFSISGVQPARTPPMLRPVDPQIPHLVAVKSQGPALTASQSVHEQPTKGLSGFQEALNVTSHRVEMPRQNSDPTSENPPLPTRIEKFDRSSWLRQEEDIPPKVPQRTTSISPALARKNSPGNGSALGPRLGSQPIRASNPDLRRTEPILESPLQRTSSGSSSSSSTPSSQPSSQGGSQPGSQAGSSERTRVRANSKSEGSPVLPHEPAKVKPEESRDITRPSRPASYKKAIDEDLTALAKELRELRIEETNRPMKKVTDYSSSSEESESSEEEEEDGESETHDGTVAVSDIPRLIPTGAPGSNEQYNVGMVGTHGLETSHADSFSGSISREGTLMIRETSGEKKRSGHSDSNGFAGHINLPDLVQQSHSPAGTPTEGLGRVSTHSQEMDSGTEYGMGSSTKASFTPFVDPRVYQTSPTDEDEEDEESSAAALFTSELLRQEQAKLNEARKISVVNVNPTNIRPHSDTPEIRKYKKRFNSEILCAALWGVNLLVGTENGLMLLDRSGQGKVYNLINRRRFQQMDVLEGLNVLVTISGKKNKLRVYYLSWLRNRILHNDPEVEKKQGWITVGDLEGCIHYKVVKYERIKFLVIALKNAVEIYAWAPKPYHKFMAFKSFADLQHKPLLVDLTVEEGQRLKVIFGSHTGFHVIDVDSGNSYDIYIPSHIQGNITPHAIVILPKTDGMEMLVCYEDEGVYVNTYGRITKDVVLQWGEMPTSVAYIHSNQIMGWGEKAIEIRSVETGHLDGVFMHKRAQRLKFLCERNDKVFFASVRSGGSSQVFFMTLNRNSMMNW
Chain of RIPK2 (O43353 whole entry): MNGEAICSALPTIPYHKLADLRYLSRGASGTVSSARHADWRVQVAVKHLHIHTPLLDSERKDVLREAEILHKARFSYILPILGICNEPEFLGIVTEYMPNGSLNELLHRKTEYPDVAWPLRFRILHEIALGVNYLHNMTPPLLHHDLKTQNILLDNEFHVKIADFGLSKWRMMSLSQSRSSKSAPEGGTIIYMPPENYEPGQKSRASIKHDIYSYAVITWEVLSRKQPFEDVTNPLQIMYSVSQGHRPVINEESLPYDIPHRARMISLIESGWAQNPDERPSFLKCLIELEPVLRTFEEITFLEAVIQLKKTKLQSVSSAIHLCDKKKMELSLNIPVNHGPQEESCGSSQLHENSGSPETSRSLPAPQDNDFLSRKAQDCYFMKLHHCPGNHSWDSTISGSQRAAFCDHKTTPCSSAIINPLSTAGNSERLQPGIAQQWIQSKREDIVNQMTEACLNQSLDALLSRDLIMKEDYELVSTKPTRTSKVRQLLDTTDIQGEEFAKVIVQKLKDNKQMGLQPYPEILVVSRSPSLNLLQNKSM
Chain of MEK2 (P36507 whole entry): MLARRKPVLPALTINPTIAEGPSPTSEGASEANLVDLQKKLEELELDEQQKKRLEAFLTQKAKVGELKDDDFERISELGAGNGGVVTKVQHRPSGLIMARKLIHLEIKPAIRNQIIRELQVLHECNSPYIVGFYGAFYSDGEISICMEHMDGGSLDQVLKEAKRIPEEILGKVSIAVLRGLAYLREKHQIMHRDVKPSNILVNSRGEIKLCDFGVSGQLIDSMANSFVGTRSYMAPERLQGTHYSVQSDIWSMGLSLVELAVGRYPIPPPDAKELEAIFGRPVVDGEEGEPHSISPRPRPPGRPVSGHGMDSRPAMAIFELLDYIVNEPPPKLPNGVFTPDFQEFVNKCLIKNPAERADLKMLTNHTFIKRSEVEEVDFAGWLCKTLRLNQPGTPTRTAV
Chain of ERK2 (P28482 whole entry): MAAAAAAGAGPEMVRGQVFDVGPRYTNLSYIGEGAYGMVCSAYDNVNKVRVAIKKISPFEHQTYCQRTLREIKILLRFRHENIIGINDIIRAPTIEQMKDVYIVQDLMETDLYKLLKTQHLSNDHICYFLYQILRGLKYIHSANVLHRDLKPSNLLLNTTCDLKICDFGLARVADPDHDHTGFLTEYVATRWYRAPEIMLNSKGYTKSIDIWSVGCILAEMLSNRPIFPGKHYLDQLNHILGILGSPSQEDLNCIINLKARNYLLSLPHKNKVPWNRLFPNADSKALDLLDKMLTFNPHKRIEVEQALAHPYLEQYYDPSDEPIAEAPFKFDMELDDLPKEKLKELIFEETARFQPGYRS
Chain of BLK (P51451 whole entry): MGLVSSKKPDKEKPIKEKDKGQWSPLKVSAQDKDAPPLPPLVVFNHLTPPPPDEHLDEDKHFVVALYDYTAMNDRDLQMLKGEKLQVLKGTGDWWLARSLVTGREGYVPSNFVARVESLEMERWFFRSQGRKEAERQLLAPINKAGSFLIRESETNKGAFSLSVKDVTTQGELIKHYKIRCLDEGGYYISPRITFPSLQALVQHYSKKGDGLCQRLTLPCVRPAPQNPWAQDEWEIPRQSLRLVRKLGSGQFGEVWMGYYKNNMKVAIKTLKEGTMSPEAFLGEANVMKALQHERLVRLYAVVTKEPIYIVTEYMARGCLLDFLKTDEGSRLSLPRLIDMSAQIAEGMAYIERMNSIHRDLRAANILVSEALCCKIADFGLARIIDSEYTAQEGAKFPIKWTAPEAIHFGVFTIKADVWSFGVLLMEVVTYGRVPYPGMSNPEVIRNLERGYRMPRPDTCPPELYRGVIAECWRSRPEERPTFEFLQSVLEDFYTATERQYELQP
Chain of HUNK (P57058 whole entry): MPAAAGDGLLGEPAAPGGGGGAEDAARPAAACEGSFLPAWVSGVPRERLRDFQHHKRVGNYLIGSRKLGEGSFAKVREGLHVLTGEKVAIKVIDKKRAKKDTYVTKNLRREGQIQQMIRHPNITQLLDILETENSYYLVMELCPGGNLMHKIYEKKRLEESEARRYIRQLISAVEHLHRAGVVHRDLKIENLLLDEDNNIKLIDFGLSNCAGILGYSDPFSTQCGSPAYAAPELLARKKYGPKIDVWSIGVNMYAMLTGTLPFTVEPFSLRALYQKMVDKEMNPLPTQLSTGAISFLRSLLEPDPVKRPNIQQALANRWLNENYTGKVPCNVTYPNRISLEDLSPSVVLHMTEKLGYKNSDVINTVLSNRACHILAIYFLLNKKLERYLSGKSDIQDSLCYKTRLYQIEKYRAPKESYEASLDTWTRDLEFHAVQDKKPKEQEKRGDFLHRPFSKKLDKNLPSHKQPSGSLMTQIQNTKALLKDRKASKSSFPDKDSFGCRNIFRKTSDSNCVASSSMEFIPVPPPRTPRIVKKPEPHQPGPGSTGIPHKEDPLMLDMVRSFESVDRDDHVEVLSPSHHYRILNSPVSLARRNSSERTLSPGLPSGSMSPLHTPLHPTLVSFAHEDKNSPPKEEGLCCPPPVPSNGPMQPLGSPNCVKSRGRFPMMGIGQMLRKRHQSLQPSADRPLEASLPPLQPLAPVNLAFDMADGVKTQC

Structure (SMILES): CNc1ncc2cc(-c3ccc(-c4cccc(C)n4)cc3Cl)c(=O)n(C[C@H]3OC[C@H](N)CO3)c2n1 [compound 6, G-5555]
- Percent Control [1]: 51%
- Percent Control [2]: 100%
- Percent Control [3]: 51%
- Percent Control [4]: 100%
- Percent Control [5]: 100%
- Percent Control [6]: 100%
- Percent Control [7]: 100%
- Percent Control [8]: 4.5%
- Percent Control [9]: 100%
- Percent Control [10]: 70%
- Percent Control [11]: 100%
- Percent Control [12]: 65%
- Percent Control [13]: 100%
- Percent Control [14]: 49%
- Percent Control [15]: 86%
- Percent Control [16]: 100%
- Percent Control [17]: 1.4%
- Percent Control [18]: 99%
- Percent Control [19]: 41%
- Percent Control [20]: 90%
- Percent Control [21]: 0%
- Percent Control [22]: 84%
- Percent Control [23]: 100%
- Percent Control [24]: 100%
- Percent Control [25]: 100%
- Percent Control [26]: 100%
- Percent Control [27]: 99%
- Percent Control [28]: 97%
- Percent Control [29]: 98%
- Percent Control [30]: 100%
